Data on 44 compounds can be found in the Deep4Chem optical property database.

Values joined by “and” are separate entries in the source; they are usually repeats but may differ in a detail not shown here. Identical values can stand only once.

The nature of this data set: photoluminescence quantum yield (fraction); solvent given as SMILES.

For `CN(C)CCCN1c2ccccc2CCc2ccccc21`, the photoluminescence quantum yield reads like this: (in CC#N) 0.012; (in CO) 0.01; (in O) 0.021.
Under “in ClCCl”, `CCCCC(CC)Cn1c2cc(-c3ccc(N(c4ccccc4)c4ccccc4)cc3)c(C#N)cc2c2cc(C#N)c(-c3ccc(N(c4ccccc4)c4ccccc4)cc3)cc21` (configuration not stated) registered a photoluminescence quantum yield of 0.8.
For the compound `O=c1oc2ccc(Cl)cc2cc1-c1cc2cc(Cl)ccc2o1`, the photoluminescence quantum yield (in CS(C)=O) was found to be 0.2.
Regarding `c1ccc(-n2c(-c3ccc(N(c4ccc(-c5ccc(N(c6ccc(-c7nc8c9ccccc9c9ccccc9c8n7-c7ccccc7)cc6)c6ccc(-c7nc8c9ccccc9c9ccccc9c8n7-c7ccccc7)cc6)cc5)cc4)c4ccc(-c5nc6c7ccccc7c7ccccc7c6n5-c5ccccc5)cc4)cc3)nc3c4ccccc4c4ccccc4c32)cc1`, under “in ClCCl”, the photoluminescence quantum yield is 0.206.
Compound `c1ccc(-c2nc(-c3ccccc3)nc(-c3ccc(-n4c5ccccc5c5cc(-n6c7ccccc7c7ccccc76)ccc54)cc3)n2)cc1` showed a photoluminescence quantum yield (in Cc1ccccc1) of 0.72.
For `CC1=[N+]2C(=C(c3ccc(-c4c5ccccc5c(-c5ccccc5)c5ccccc45)cc3)c3ccc(C)n3[B-]2(F)F)C=C1`, the photoluminescence quantum yield by setting is: (in CC#N) 0.002; (in CCCCCC) 0.204; (in CCO) 0.037; (in CN(C)C=O) 0.002; (in Cc1ccccc1) 0.259; (in ClCCl) 0.027.
`N#Cc1ccc(/C=C2\N=C(c3ccccc3)NC2=O)cc1`: the photoluminescence quantum yield (in C1COCCO1) was determined as 0.158.
For the compound `COc1cc(C=O)cc(-c2[nH]c(=O)n3c2-c2ccccc2C3=O)c1O`, the photoluminescence quantum yield was determined as 0.33 (in CC#N), 0.04 (in CO) and 0.93 (in ClCCl).
Compound `CNc1ccc2nc3cc(Cl)c(Cl)cc3nc2c1` returned a photoluminescence quantum yield (in CCO) of 0.06.
`CCN(C)c1ccc(C2=C3C(C)=CC(C)=[N+]3[B-](F)(F)n3c(C)cc(C)c32)cc1` gave a photoluminescence quantum yield (in CO) of 0.44.
In turn, `COC(=O)[C@@]12N=N[C@@](C(=O)OC)(C3[C@H]1C3(C)C)[C@H]1[C@@H]2C1(C)C` (some centres not stated) registered a photoluminescence quantum yield (in CC#N) of 0.041.
`c1cc2ccc1-c1ccc(cc1)-c1ccc([se]1)-c1ccc(cc1)-c1ccc(cc1)-c1ccc([se]1)-c1ccc(cc1)-c1ccc(cc1)-c1ccc-2[se]1`: the photoluminescence quantum yield (in C1CCOC1) worked out at 0.08.
Take `[NH3+]C(Cc1ccc(O)cc1)C(=O)[O-]` (configuration not stated): the photoluminescence quantum yield (in O) was 0.13.
In turn, `COc1ccc2ccc3oc(=O)c(-c4ccccc4)nc3c2c1` yielded a photoluminescence quantum yield (in c1ccccc1) of 0.668.
In turn, `CCC1=C(C)C2=C(c3c4ccccc4cc4ccccc34)c3c(C)c(CC)c(C)n3[B-](F)(F)[N+]2=C1C` gave a photoluminescence quantum yield (in CC#N) of 0.579; a photoluminescence quantum yield (in CCCCCC) of 0.871; a photoluminescence quantum yield (in CCO) of 0.778; a photoluminescence quantum yield (in CN(C)C=O) of 0.705; a photoluminescence quantum yield (in Cc1ccccc1) of 0.806; a photoluminescence quantum yield (in ClCCl) of 0.799.
Compound `COc1ccc(C2=CC(c3ccccc3)=C(c3ccccc3)C2)c2ccccc12` registered a photoluminescence quantum yield (in ClCCl) of 0.0685.
The compound `CCc1cc(CC)cc(-n2c3ccccc3c3cc4c(cc32)c2ccccc2n4-c2cc(CC)cc(CC)c2)c1` returned a photoluminescence quantum yield (in ClC(Cl)Cl) of 0.14.
`CC1(C)c2ccccc2N(c2ccc(C(=O)/C=C(\O)c3ccc(N4c5ccccc5C(C)(C)c5ccccc54)cc3)cc2)c2ccccc21`: the photoluminescence quantum yield (in c1ccc2c(c1)c1ccccc1n2-c1ccc(-c2ccc(-n3c4ccccc4c4ccccc43)cc2)cc1) was found to be 0.86.
Take `O=[N+]([O-])c1ccc(C#Cc2ccc3ccccc3c2)cc1`: the photoluminescence quantum yield was determined as 0.005 (in ClC(Cl)Cl) and 0.006 (in ClCCl).
`O=c1c2ccccc2c2c3c(cccc13)c(-c1ccccc1)c1c3cccc4cccc(c43)c12`: the photoluminescence quantum yield was 0.91 (in CC#N) and 0.97 (in CO).
Compound `CC1(C)c2ccccc2N(c2ccc(-c3nc(-c4ccccc4)cc(-c4ccccc4)n3)cc2)c2ccccc21` displayed a photoluminescence quantum yield (in CC#N) of 0.018, a photoluminescence quantum yield (in Cc1ccccc1) of 0.339, a photoluminescence quantum yield (in ClCCl) of 0.632 and a photoluminescence quantum yield (in O=P(c1ccccc1)(c1ccccc1)c1ccccc1Oc1ccccc1P(=O)(c1ccccc1)c1ccccc1) of 0.61.
The compound `CC(C)(C)OC(=O)CN1CCN(c2ccc3c(-c4ccc(I)cc4)c4ccc(=[N+]5CCN(CC(=O)OC(C)(C)C)CC5)cc-4oc3c2)CC1` had a photoluminescence quantum yield (in ClCCl) of 0.007.
Turning to `C[Si](C)(C)C#CC(C#C[Si](C)(C)C)=Cc1ccc(C=C(C#C[Si](C)(C)C)C#C[Si](C)(C)C)cc1`, the photoluminescence quantum yield (in ClC(Cl)Cl) was 0.01 and 0.03.
The compound `CC(C)[Si](C#Cc1c2nc3ccccc3nc2c(C#C[Si](C(C)C)(C(C)C)C(C)C)c2nc3c4ccccc4c(=O)c4ccccc4c3nc12)(C(C)C)C(C)C` gave a photoluminescence quantum yield (in ClCCl) of 0.5.
For the compound `COC(=O)CCC(NC(=O)CCNc1cccc2ccccc12)C(=O)OC` (configuration not stated), the photoluminescence quantum yield (in CCO) is 0.57.
The compound `CCCCCCCCCCCCN1C(=O)c2c(c3ccc4cc(-c5ccccc5)c(OC)cc4c3c3c2ccc2cc(-c4ccccc4)c(OC)cc23)C1=O` registered a photoluminescence quantum yield (in ClCCl) of 0.148.
`COc1ccc(/C=C/c2cc(/C=C/c3ccc(OC)cc3)nc(/C=C/c3ccc4cc(OC)ccc4c3)n2)cc1` came in with a photoluminescence quantum yield (in ClCCl) of 0.11.
For `COc1cc2c(cc1-c1ccc(Cl)cc1)Cc1c3c(c4c(c1-2)-c1cc(OC)c(-c2ccc(Cl)cc2)cc1C4)C(=O)N(CCC(C)C)C3=O`, the photoluminescence quantum yield (in C1CCOC1) worked out at 0.52.
Regarding `COc1cc2c3cc(OC)c(OC)cc3c3cc4c(C)cc(=O)oc4cc3c2cc1OC`, the photoluminescence quantum yield was determined as 0.02 (in CO), 0.056 (in CS(C)=O) and 0.08 (in ClC(Cl)Cl).
With `CCCCN1C(=O)c2cc(Oc3ccc(C(C)(C)C)cc3)c3c4c(Oc5ccc(C(C)(C)C)cc5)cc5c(=O)[nH]/c(=C\c6ccccn6)c6cc(Oc7ccc(C(C)(C)C)cc7)c(c7c(Oc8ccc(C(C)(C)C)cc8)cc(c2c37)C1=O)c4c56`, the photoluminescence quantum yield is, setting by setting: (in C1CCOC1) 0.336; (in Cc1ccccc1) 0.408; (in ClCCl) 0.421.
In the case of `COc1ccc(-n2c(C)ccc2C)cc1`, the photoluminescence quantum yield reads like this: (in CC#N) 0.026; (in CCCCCC) 0.024.
As for `CC(=O)c1ccc(NC(=O)c2ccc(N(C)C)cc2)cc1`, the photoluminescence quantum yield is 0.0006 (in C1CCCCC1), 0.0158 (in C1CCOC1), 0.0017 (in CC#N) and 0.001 (in CCOCC).
`CN(C)c1ccc2nc(-c3ccc(C(=O)O)cc3)sc2c1` came in with a photoluminescence quantum yield (in C1CCCCC1) of 0.89; a photoluminescence quantum yield (in CC#N) of 0.86; a photoluminescence quantum yield (in CC(C)O) of 0.96; a photoluminescence quantum yield (in CO) of 0.84; a photoluminescence quantum yield (in CS(C)=O) of 0.98; a photoluminescence quantum yield (in ClC(Cl)Cl) of 0.96. Moreover, the photoluminescence quantum yield (in c1ccccc1) came to 0.85.
Consider `Clc1ccc(C2=C(c3ccc(Cl)cc3)c3cccc4c3c(cc3nc5ccccc5nc34)O2)cc1`, for which the photoluminescence quantum yield (in ClCCl) came to 0.37.
As for `CCCCCCC(CCCCCC)N1C(=O)c2cccc3c(-c4ccc(OC)c5ccccc45)ccc(c23)C1=O`, the photoluminescence quantum yield by setting is: (in CCCCCC) 0.33; (in CCCCCCCCCCCCCC) 0.34; (in CCCCCCCCCCCO) 0.23; (in CCCCO) 0.088; (in CN(C)C=O) 0.13; (in Cc1ccccc1) 0.18. The compound also displayed a photoluminescence quantum yield (in ClC(Cl)Cl) of 0.39.
Consider `CCOc1ccc2c(-c3nc(-c4cccc(C)c4)no3)cc(=O)oc2c1`, for which the photoluminescence quantum yield runs as follows: (in CCO) 0.68; (in ClC(Cl)Cl) 0.23.
As for `O=C(c1ccc(N2c3ccccc3Oc3ccccc32)cc1)c1cccc(C(=O)c2ccc(N3c4ccccc4Oc4ccccc43)cc2)c1`, the photoluminescence quantum yield (in Cc1ccccc1) amounted to 0.36 and the photoluminescence quantum yield (in c1cc(-c2cccc(-n3c4ccccc4c4ccccc43)c2)cc(-n2c3ccccc3c3ccccc32)c1) was 0.71.
In the case of `COc1ccc(C2=c3sc(-c4ccc(OC)cc4)cc3=[N+]3C2=Nc2c(-c4ccc(OC)cc4)c4sc(-c5ccc(OC)cc5)cc4n2[B-]3(F)F)cc1`, the photoluminescence quantum yield (in ClC(Cl)Cl) came out at 0.1.
Consider `COc1ccc(C2=C(c3ccc(OC)cc3)C(c3ccc(OC)cc3)=[N+]3C2=C(c2ccc(OC)cc2)c2c(-c4ccc(OC)cc4)c(-c4ccc(OC)cc4)c(-c4ccc(OC)cc4)n2[B-]3(F)F)cc1`, for which, under “in C1CCOC1”, the photoluminescence quantum yield is 0.26.
For the setting “in ClCCl”, `Fc1ccccc1-c1c2cc(Cl)ccc2nc2cc3ccccc3cc12` displayed a photoluminescence quantum yield of 0.46.
The compound `CC(C)[Si](C#Cc1c2nsnc2c(C#C[Si](C(C)C)(C(C)C)C(C)C)c2nc3c(nc12)C1c2ccccc2C3c2ccccc21)(C(C)C)C(C)C` registered a photoluminescence quantum yield (in CCCCCC) of 0.66.
Consider `Oc1ccc(-c2cccs2)cc1-c1nc2ccccc2s1`, for which the photoluminescence quantum yield is, setting by setting: (in CCO) 0.0473; (in ClCCl) 0.0242.
Consider `Cc1ccc(/C(C#N)=C/c2cc(/C=C(\C#N)c3ccc(C)cc3)c(-c3ccc(N(c4ccccc4)c4ccccc4)cc3)cc2-c2ccc(N(c3ccccc3)c3ccccc3)cc2)cc1`, for which the photoluminescence quantum yield turned out to be 0.093 (in C1CCCCC1); 0.045 (in C1CCOC1); 0.121 (in CCCCCC); 0.049 (in CCOC(C)=O); 0.06 (in Cc1ccccc1); 0.048 (in ClC(Cl)Cl). This compound returned a photoluminescence quantum yield (in ClCCl) of 0.028.
Take `CCCCCCn1c2cc(/C=C/c3ccccc3)ccc2c2ccc(/C=C/c3ccccc3)cc21`: for the setting “in ClC(Cl)Cl”, the photoluminescence quantum yield was found to be 0.91.
